Reference: the NIST ThermoML archive (doi:10.1016/j.fluid.2011.01.018)

Legend:
[1] = 101 kPa, Liquid, Vibrating tube method
[2] = xn = mol fraction of the nth substance listed; conditions: 101 kPa, Liquid, Vibrating tube method

CC(C)CC(C)(C)C [2,2,4-trimethylpentane]
[1]
Conditions | mass density [kg/m3]
293 K | 691.88
303 K | 683.64
313 K | 675.3
323 K | 666.84

CC(C)CC(C)(C)C [2,2,4-trimethylpentane] + c1ccccc1
mass density [kg/m3], [2]
Conditions | x2 = 0 | x2 = 0.1248 | x2 = 0.1642 | x2 = 0.3682 | x2 = 0.4538 | x2 = 0.502 | x2 = 0.5388 | x2 = 0.6023 | x2 = 0.6896 | x2 = 0.9443
293 K | 691.88 | 704.06 | 708.26 | 733.74 | 746.53 | 754.34 | 760.7 | 772.44 | 790.37 | 859.13
303 K | 683.64 | 695.66 | 699.8 | 724.94 | 737.57 | 745.27 | 751.54 | 763.15 | 780.86 | 848.73
313 K | 675.3 | 687.16 | 691.24 | 716.05 | 728.51 | 736.12 | 742.33 | 753.77 | 771.25 | 838.26
323 K | 666.84 | 678.53 | 682.55 | 707.04 | 719.33 | 726.85 | 732.96 | 744.28 | 761.54 | 827.7

c1ccccc1 [benzene]
[1]
Conditions | mass density [kg/m3]
293 K | 878.98
303 K | 868.3
313 K | 857.57
323 K | 846.76

c1ccccc1 [benzene] + C1CCCCC1
[2], x1 = 1
Conditions | mass density [kg/m3]
293 K | 878.98
303 K | 868.3
313 K | 857.57
323 K | 846.76

c1ccccc1 [benzene] + CC(C)CC(C)(C)C
[2], x1 = 1
Conditions | mass density [kg/m3]
293 K | 878.98
303 K | 868.3
313 K | 857.57
323 K | 846.76

C1CCCCC1 [cyclohexane]
[1]
Conditions | mass density [kg/m3]
293 K | 778.54
303 K | 769.13
313 K | 759.6
323 K | 749.94

C1CCCCC1 [cyclohexane] + c1ccccc1
mass density [kg/m3], [2]
Conditions | 293 K | 303 K | 313 K | 323 K
x2 = 0 | 778.54 | 769.13 | 759.6 | 749.94
x2 = 0.1 | 784.99 | 775.47 | 765.87 | 756.14
x2 = 0.1805 | 790.71 | 781.14 | 771.46 | 761.67
x2 = 0.2347 | 794.92 | 785.3 | 775.57 | 765.73
x2 = 0.3029 | 800.47 | 790.79 | 781 | 771.1
x2 = 0.3801 | 807.1 | 797.33 | 787.47 | 777.5
x2 = 0.4453 | 813.09 | 803.25 | 793.32 | 783.27
x2 = 0.5223 | 820.56 | 810.63 | 800.62 | 790.48
x2 = 0.5814 | 826.62 | 816.62 | 806.53 | 796.34
x2 = 0.6563 | 834.72 | 824.62 | 814.44 | 804.14
x2 = 0.7135 | 841.21 | 831.03 | 820.77 | 810.41
x2 = 0.7654 | 847.44 | 837.18 | 826.83 | 816.41
x2 = 0.8191 | 854.16 | 843.82 | 833.39 | 822.89
x2 = 0.8771 | 861.75 | 851.31 | 840.79 | 830.19
x2 = 0.9161 | 867.03 | 856.52 | 845.95 | 835.28
